Source: ChEMBL document CHEMBL2375244 (J Med Chem, 2013)

Key:
[1] = biological target: T1, CDK2/Cyclin A2 (Homo sapiens, UniProt P24941); experiment: Inhibition of human CDK2/Cyclin A2 using PKTPKKAKKL as substrate by PK/LDH spectrophotometric analysis; format: protein-complex assay
[2] = biological target: T1, CDK2/Cyclin A2; experiment: Inhibition of human CDK2/Cyclin A2 using PKTPKKAKKL as substrate by fluorescence assay; format: protein-complex assay

| IC50 [1] | IC50 [2] | Compound |
| --- | --- | --- |
| 3.5 µM |  | Nc1nc(Nc2ccc(S(N)(=O)=O)cc2)sc1C(=O)C1CCCCC1 |
| 2.2 µM |  | Nc1nc(Nc2ccccc2)sc1C(=O)c1cccc([N+](=O)[O-])c1 |
| 2.9 µM |  | C=CCNc1nc(N)c(C(=O)c2cccc([N+](=O)[O-])c2)s1 |
| > 100 µM |  | Nc1nc(Nc2ccc(C(F)(F)F)cc2)sc1C(=O)c1ccccc1 |
| > 100 µM |  | Nc1nc(Nc2ccccc2)sc1C(=O)c1ccc2ccccc2c1 |
| 8.9 µM |  | CCCNc1nc(N)c(C(=O)c2ccccc2)s1 |
| 17 µM |  | COc1ccc(C(=O)c2sc(Nc3ccc(S(N)(=O)=O)cc3)nc2N)cc1 |
| 35 µM |  | C=CCNc1nc(N)c(C(=O)c2ccc(OC)cc2)s1 |
| 1.5 µM |  | Nc1nc(Nc2ccc(S(N)(=O)=O)cc2)sc1C(=O)c1cccc(O)c1 |
| 41 µM |  | C=CCNc1nc(N)c(C(=O)c2ccc([N+](=O)[O-])cc2)s1 |
| 95 µM |  | CNc1nc(N)c(C(=O)c2ccccc2)s1 |
| 7.8 µM |  | Nc1nc(Nc2cccc(S(N)(=O)=O)c2)sc1C(=O)c1cccnc1 |
| 33 µM |  | C=CCNc1nc(N)c(C(=O)c2ccccn2)s1 |
| 49 µM |  | C=CCNc1nc(N)c(C(=O)c2ccncc2)s1 |
| 4.8 µM |  | Cc1ccccc1C(=O)c1sc(Nc2ccc(S(N)(=O)=O)cc2)nc1N |
| 8.8 µM |  | Nc1ccc(C(=O)c2sc(Nc3ccc(S(N)(=O)=O)cc3)nc2N)cc1 |
| 32 µM |  | COC(=O)c1ccccc1C(=O)c1sc(Nc2ccc(S(N)(=O)=O)cc2)nc1N |
| 99 µM |  | Nc1nc(Nc2ccccc2)sc1C(=O)c1cccc(Cl)c1 |
| 17 µM |  | CCNc1nc(N)c(C(=O)c2ccccc2)s1 |
| 2.8 µM |  | N#Cc1ccc(Nc2nc(N)c(C(=O)c3cccnc3)s2)cc1 |
| > 100 µM |  | C=CCNc1nc(N)c(C(=O)c2ccc(F)cc2)s1 |
| > 100 µM |  | C=CCNc1nc(N)c(C(C)=O)s1 |
| 3.1 µM |  | C=CCNc1nc(N)c(C(=O)c2cccnc2)s1 |
| > 100 µM |  | CC(=O)c1sc(Nc2ccccc2)nc1N |
|  | 0.52 µM | CC(C)Nc1nc(N)c(C(=O)c2cccnc2)s1 |
| 15 µM |  | Nc1nc(Nc2ccc(S(N)(=O)=O)cc2)sc1C(=O)c1cccc(Cl)c1 |

Second part, the compound before the results:

| Compound | IC50 [1] | IC50 [2] |
| --- | --- | --- |
| Nc1nc(NC2CCNCC2)sc1C(=O)c1cccnc1 | 43 µM |  |
| CC(C)(C)Nc1nc(N)c(C(=O)c2ccccc2)s1 | > 100 µM |  |
| C=C(C)CNc1nc(N)c(C(=O)c2ccccc2)s1 | 15 µM |  |
| Nc1nc(Nc2cccc(F)c2)sc1C(=O)c1ccccc1 | 5.7 µM |  |
| CC(C)(C)OC(=O)N1CCC(Nc2nc(N)c(C(=O)c3cccnc3)s2)CC1 | 3.5 µM |  |
| C=CCNc1nc(N)c(C(=O)C(C)(C)C)s1 | > 100 µM |  |
| C=CCNc1nc(N)c(C(=O)c2ccccc2)s1 | 15 µM |  |
| COc1cccc(C(=O)c2sc(Nc3ccccc3)nc2N)c1 | 3.1 µM |  |
| CCOC(=O)c1sc(Nc2ccccc2)nc1N | > 100 µM |  |
| CC(C)Nc1nc(N)c(C(=O)c2ccccc2)s1 | 2 µM |  |
| C=CCNc1nc(N)c(C(=O)c2ccc(C)cc2)s1 | 37 µM |  |
| C=CCNc1nc(N)c(C(=O)c2ccc(Cl)cc2)s1 | > 100 µM |  |
| Nc1nc(Nc2ccccc2)sc1C(=O)c1cccc(C(F)(F)F)c1 | > 100 µM |  |
| C=CCNc1nc(N)c(C(=O)c2ccc3ccccc3c2)s1 | 5 µM |  |
| C=CCNc1nc(N)c(C(=O)c2ccc(Cl)s2)s1 | 12 µM |  |
| NC(=O)c1sc(Nc2ccc(S(N)(=O)=O)cc2)nc1N | 4.8 µM |  |
| C=CCNc1nc(N)c(C(=O)Nc2cc(C)no2)s1 | > 100 µM |  |
| Nc1nc(Nc2ccc(C(=O)O)cc2)sc1C(=O)c1cccnc1 | 4 µM |  |
| Nc1nc(Nc2ccc(S(N)(=O)=O)cc2)sc1C(=O)c1ccc([N+](=O)[O-])cc1 | 7.4 µM |  |
| CN(C)/C=C/C(=O)c1sc(Nc2ccc(S(N)(=O)=O)cc2)nc1N | > 100 µM |  |
| Nc1nc(Nc2ccc(S(N)(=O)=O)cc2)sc1C(=O)c1cccc(C(F)(F)F)c1 |  | 0.57 µM |
| Nc1nc(Nc2ccccc2)sc1C(=O)c1cc(C(F)(F)F)cc(C(F)(F)F)c1 | > 100 µM |  |
| Nc1nc(Nc2ccc(S(N)(=O)=O)cc2)sc1C(=O)c1cc(C(F)(F)F)cc(C(F)(F)F)c1 | 25 µM |  |
